Measured values as given in ChEMBL document CHEMBL4765415 (Eur J Med Chem, 2020).
One block for each compound: values may come before it. Active and inactive are the calls of the source. The calls are words filed in the database; no cut-off is given here.

Legend:
[1] = target: T1, Bifunctional epoxide hydrolase 2 (Homo sapiens, UniProt P34913); assay: Inhibition of human sEH using epoxy flour 7 as substrate measured after 30 mins by cell-based fluorescence assay
T1 sequence (P34913 whole entry): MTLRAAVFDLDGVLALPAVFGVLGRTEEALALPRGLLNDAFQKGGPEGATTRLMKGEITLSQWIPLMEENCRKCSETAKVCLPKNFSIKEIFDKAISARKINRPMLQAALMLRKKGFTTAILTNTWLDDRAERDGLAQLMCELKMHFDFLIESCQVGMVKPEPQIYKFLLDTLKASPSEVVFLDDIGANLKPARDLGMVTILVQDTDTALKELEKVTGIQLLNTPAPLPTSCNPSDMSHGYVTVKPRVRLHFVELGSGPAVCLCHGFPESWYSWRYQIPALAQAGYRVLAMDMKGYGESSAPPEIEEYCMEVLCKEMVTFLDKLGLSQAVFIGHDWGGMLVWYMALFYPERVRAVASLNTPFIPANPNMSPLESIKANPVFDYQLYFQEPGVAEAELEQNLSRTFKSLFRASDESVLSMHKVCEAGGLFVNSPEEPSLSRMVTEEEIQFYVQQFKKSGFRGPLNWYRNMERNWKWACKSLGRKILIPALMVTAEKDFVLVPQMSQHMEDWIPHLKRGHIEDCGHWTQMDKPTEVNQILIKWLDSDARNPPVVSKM

[2] = test system: Mus musculus; assay: Analgesic activity in albino mouse assessed as inhibition of acetic acid-induced writhing at 10 mg/kg, po administered 1 hr prior to acetic acid challenge and measured after 5 to 15 mins relative to control; format: functional; settings: time 60-75 min
[3] = target: Prostaglandin G/H synthase 1 (Homo sapiens, UniProt P23219); assay: Inhibition of recombinant human COX1 using arachidonic acid as substrate preincubated for 5 mins followed by substrate addition and measured after 2 mins by Ellman's reagent based enzyme immunoassay; format: ADME
[4] = test system: Mus musculus; assay: Analgesic activity in albino mouse assessed as inhibition of acetic acid-induced writhing at 10 mg/kg, po administered 1 hr prior to acetic acid challenge and measured after 5 to 15 mins relative to celecoxib; format: functional; settings: time 60-75 min
[5] = test system: Rattus norvegicus; assay: Antiinflammatory activity in albino rat model of carrageenan-induced paw edema assessed as inhibition of paw edema at 50 mg/kg, po administered 1 hr prior to carrageenan challenge and measured after 5 hrs by Vernier caliper method relative to control; format: functional; settings: time 6 hrs
[6] = test system: Rattus norvegicus; assay: Antiinflammatory activity in albino rat model of carrageenan-induced paw edema assessed as inhibition of paw edema at 50 mg/kg, po administered 1 hr prior to carrageenan challenge and measured after 3 hrs by Vernier caliper method relative to control; format: functional; settings: time 4 hrs
[7] = test system: Rattus norvegicus; assay: Antiinflammatory activity in albino rat model of carrageenan-induced paw edema assessed as inhibition of paw edema at 50 mg/kg, po administered 1 hr prior to carrageenan challenge and measured after 1 hr by Vernier caliper method relative to control; format: functional; settings: time 2 hrs
[8] = Selectivity index, ratio of IC50 for recombinant human COX1 to recombinant human COX2
[9] = target: T2, Prostaglandin G/H synthase 2 (Homo sapiens, UniProt P35354); assay: Inhibition of recombinant human COX2 using arachidonic acid as substrate preincubated for 5 mins followed by substrate addition and measured after 2 mins by Ellman's reagent based enzyme immunoassay; format: ADME
T2 sequence (P35354 whole entry): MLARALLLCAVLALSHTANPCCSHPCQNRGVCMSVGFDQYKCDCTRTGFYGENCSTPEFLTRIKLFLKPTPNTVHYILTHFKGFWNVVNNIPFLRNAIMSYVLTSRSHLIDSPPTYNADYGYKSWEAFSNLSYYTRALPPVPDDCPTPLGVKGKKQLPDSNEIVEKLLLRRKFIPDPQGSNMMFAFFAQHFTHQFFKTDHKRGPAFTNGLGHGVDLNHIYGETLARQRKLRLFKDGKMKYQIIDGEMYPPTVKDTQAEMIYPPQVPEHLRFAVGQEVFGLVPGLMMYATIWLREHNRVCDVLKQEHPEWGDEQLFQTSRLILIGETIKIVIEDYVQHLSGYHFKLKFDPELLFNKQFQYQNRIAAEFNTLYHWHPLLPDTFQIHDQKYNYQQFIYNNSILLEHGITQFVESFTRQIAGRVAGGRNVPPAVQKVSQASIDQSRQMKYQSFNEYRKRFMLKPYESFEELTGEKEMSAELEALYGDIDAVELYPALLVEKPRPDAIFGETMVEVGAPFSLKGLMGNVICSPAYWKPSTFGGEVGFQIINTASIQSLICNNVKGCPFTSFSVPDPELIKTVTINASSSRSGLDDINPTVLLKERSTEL

[10] = test system: Rattus norvegicus; assay: Cardioprotective activity in celecoxib-induced cardiotoxicity in albino Wistar rat assessed as reduction in congestion in myocardium blood vessel at 100 mg/kg, po administered for 2 weeks and measured on day 15 by H and E staining based histopathological analysis; format: functional, organism-based; settings: time 15.0 day
[11] = test system: Rattus norvegicus; assay: Cardioprotective activity in celecoxib-induced cardiotoxicity in albino Wistar rat assessed as change in serum LDH level at 100 mg/kg, po administered for 2 weeks and measured on day 15 by spectrophotometry (reference value: 2091.3 +/- 99.9 IU/L); format: functional; settings: time 15 day
[12] = test system: Rattus norvegicus; assay: Cardioprotective activity in celecoxib-induced cardiotoxicity in albino Wistar rat assessed as restoration of GSH level in cardiac tissue at 100 mg/kg, po administered for 2 weeks and measured on day 15; format: functional, organism-based; settings: time 15.0 day
[13] = test system: Rattus norvegicus; assay: Cardioprotective activity in celecoxib-induced cardiotoxicity in albino Wistar rat assessed as change in serum creatine kinase-MB level at 100 mg/kg, po administered for 2 weeks and measured on day 15 by spectrophotometry (reference value: 95.33 +/- 4 IU/L); format: functional; settings: time 15 day
[14] = Cardiotoxicity in albino Wistar rat assessed as change in serum PGI2 level at 100 mg/kg, po administered for 2 weeks and measured on day 15 by ELISA; format: toxicity, organism-based; settings: in vivo, 360 h, time 15 day
[15] = test system: Rattus norvegicus; assay: Cardioprotective activity in celecoxib-induced cardiotoxicity in albino Wistar rat assessed as reduction in edema in myocardium blood vessel at 100 mg/kg, po administered for 2 weeks and measured on day 15 by H and E staining based histopathological analysis; format: functional, organism-based; settings: time 15.0 day
[16] = test system: Rattus norvegicus; assay: Cardioprotective activity in celecoxib-induced cardiotoxicity in albino Wistar rat assessed as reduction in edema in coronary artery at 100 mg/kg, po administered for 2 weeks and measured on day 15 by H and E staining based histopathological analysis; format: functional, organism-based; settings: time 15.0 day
[17] = test system: Rattus norvegicus; assay: Cardioprotective activity in celecoxib-induced cardiotoxicity in albino Wistar rat assessed as reduction in congestion in coronary artery at 100 mg/kg, po administered for 2 weeks and measured on day 15 by H and E staining based histopathological analysis; format: functional, organism-based; settings: time 15.0 day
[18] = test system: Rattus norvegicus; assay: Cardioprotective activity in celecoxib-induced cardiotoxicity in albino Wistar rat assessed as change in serum troponin-I level at 100 mg/kg, po administered for 2 weeks and measured on day 15 by ELISA (reference value: 340 +/- 11.56 pg/ml); format: functional; settings: time 15 day
[19] = test system: Rattus norvegicus; assay: Cardioprotective activity in celecoxib-induced cardiotoxicity in albino Wistar rat assessed as restoration of serum PGI2 level at 100 mg/kg, po administered for 2 weeks and measured on day 15 by ELISA; format: functional, organism-based; settings: time 15.0 day
[20] = test system: Rattus norvegicus; assay: Cardioprotective activity in celecoxib-induced cardiotoxicity in albino Wistar rat assessed as change in serum TNFalpha level at 100 mg/kg, po administered for 2 weeks and measured on day 15 by ELISA (reference value: 748.67 +/- 43.15 pg/ml); format: functional; settings: time 15 day

Prostaglandin G/H synthase 1, sequence (P23219 whole entry): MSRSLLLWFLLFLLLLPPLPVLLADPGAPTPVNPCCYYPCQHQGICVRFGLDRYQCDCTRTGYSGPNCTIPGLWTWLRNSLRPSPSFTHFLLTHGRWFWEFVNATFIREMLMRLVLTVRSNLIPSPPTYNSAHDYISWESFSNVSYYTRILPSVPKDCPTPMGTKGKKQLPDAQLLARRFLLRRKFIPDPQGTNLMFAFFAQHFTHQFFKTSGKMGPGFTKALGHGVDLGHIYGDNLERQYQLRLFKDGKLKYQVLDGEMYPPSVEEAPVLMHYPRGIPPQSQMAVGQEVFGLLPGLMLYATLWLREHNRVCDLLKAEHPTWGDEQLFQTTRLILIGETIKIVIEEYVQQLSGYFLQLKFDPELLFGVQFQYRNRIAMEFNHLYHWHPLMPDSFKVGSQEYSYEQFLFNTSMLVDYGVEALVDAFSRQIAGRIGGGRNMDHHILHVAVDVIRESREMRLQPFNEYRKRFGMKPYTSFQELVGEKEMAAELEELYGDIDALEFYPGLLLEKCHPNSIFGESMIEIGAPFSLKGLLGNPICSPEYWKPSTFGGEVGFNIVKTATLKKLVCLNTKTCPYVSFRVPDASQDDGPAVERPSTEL

IC50 [1]: 1.21 nM
Compound: NS(=O)(=O)c1ccc(-n2nc(C(=O)Nc3ccc(C(F)(F)F)cc3)cc2-c2ccccc2)cc1

IC50 [1]: 3.31 nM
Compound: NS(=O)(=O)c1ccc(-n2nc(C(=O)NCCCCCCCCCCC(=O)O)cc2-c2ccccc2)cc1

IC50 [1]: 0.4 nM
Compound: NS(=O)(=O)c1ccc(-n2nc(NC(=O)Nc3ccc(C(F)(F)F)cc3)cc2-c2ccccc2)cc1

IC50 [1]: 1.84 nM
Compound: NS(=O)(=O)c1ccc(-n2nc(C(=O)NCCCC(=O)O)cc2-c2ccccc2)cc1

IC50 [1]: 1.57 nM
Compound: NS(=O)(=O)c1ccc(-n2nc(NC(=O)NCCCCCCCCCCC(=O)O)cc2-c2ccccc2)cc1

Further lines, the compound ahead of its results:

Compound: NS(=O)(=O)c1ccc(-n2nc(C(=O)NC34CC5CC(CC(C5)C3)C4)cc2-c2ccccc2)cc1
inhibition in vivo at 10 mg/kg [2]: 62.7%
IC50 [3]: 8990 nM
fold change (FC) [4]: 4.66
inhibition in vivo at 50 mg/kg [5]: 84.2%
inhibition in vivo at 50 mg/kg [6]: 76.5%
inhibition in vivo at 50 mg/kg [7]: 42%
Ratio IC50 [8]: 4.18
IC50 [1]: 1.15 nM
IC50 [9]: 2150 nM

Compound: NS(=O)(=O)c1ccc(-n2nc(NC(=O)NCCCC(=O)O)cc2-c2ccccc2)cc1
IC50 [1]: 4.01 nM

Compound: NS(=O)(=O)c1ccc(-n2nc(NC(=O)NC34CC5CC(CC(C5)C3)C4)cc2-c2ccccc2)cc1
Activity [10]: Active
Activity [11]: 1585 IU/L
Activity [12]: Active
inhibition in vivo at 10 mg/kg [2]: 24.6%
IC50 [3]: 11800 nM
Activity [13]: 22 IU/L
fold change (FC) [4]: 1.83
inhibition in vivo at 50 mg/kg [5]: 93.8%
Activity [14]: Toxic
Activity [15]: Active
inhibition in vivo at 50 mg/kg [6]: 92%
Activity [16]: Active
Activity [17]: Active
Activity [18]: 150 pg/mL
inhibition in vivo at 50 mg/kg [7]: 62.2%
Ratio IC50 [8]: 6.41
IC50 [1]: 0.55 nM
Activity [19]: Active
IC50 [9]: 1850 nM
Activity [20]: 322 pg/mL

Compound: Cc1ccc(-c2cc(C(F)(F)F)nn2-c2ccc(S(N)(=O)=O)cc2)cc1 [CELECOXIB]
inhibition in vivo at 10 mg/kg [2]: 13.4%
inhibition in vivo at 50 mg/kg [5]: 88.3%
Activity [14]: Toxic
inhibition in vivo at 50 mg/kg [6]: 82.7%
inhibition in vivo at 50 mg/kg [7]: 81.2%

Compound: CCOC(=O)C1CCN(C(=O)c2cc(-c3ccccc3)n(-c3ccc(S(N)(=O)=O)cc3)n2)CC1
IC50 [1]: 1.61 nM

Compound: NS(=O)(=O)c1ccc(-n2nc(C(=O)NC3CCCCC3)cc2-c2ccccc2)cc1
IC50 [1]: 2.38 nM

Compound: NS(=O)(=O)c1ccc(-n2nc(NC(=O)NC3CCCCC3)cc2-c2ccccc2)cc1
IC50 [1]: 0.98 nM

Compound: CCOC(=O)C1CCN(C(=O)Nc2cc(-c3ccccc3)n(-c3ccc(S(N)(=O)=O)cc3)n2)CC1
IC50 [1]: 1.74 nM
